Values quoted from earlier work, collected in article PMC8745345, “Hydroxy Pentacyclic Triterpene Acid, Kaempferol, Inhibits the Human 5-Hydroxytryptamine Type 3A Receptor Activity” (International Journal of Molecular Sciences, 2022).

System: 5-HT3A
Conditions: cited from earlier work

In the case of Cc1nccn1CC1CCc2c(c3ccccc3n2C)C1=O (stereo not drawn) [ondansetron], the IC50 (5-HT3 antagonist potency) is given as 4.9 nM, the mode of antagonism is given as “competitive antagonist” and the “efficacy of antagonist against I5-HT(100uM) of 5-HT3A” value (serotonin 100 uM) is given as roughly 100%.
